# Measured values: PMC6778101 (Nature Communications, 2019)
# Ends that are not written are not given here. Peptide text beside a SMILES is read from it.
# Columns and labels:
# K. pneumoniae ATCC 10031 [1] = type: cell-based, Klebsiella pneumoniae; details: Klebsiella pneumoniae ATCC 10031; broth dilution, 37 °C, 18 h
# Experimental: (§1) Unless otherwise indicated, we used E. coli K-12 BW25113 in all high-throughput experiments. To investigate the impact of mutation rate on evolution of AMP resistance, we initiated laboratory evolution with a mutator strain E. coli mutD5 that carries mutations in the dnaQ gene (L73W and A164V).
# (§2) MICs were determined using a standard serial broth dilution technique. Briefly, 11-step serial dilutions were prepared in 96-well microtiter plates with three replicates per strain and antimicrobial compound. Each experiment was repeated at least twice. 5 × 10^5 cells/mL were inoculated into each well, and the plates were incubated at 30 °C in case of E. coli K-12 BW25113, and its antibiotic and AMP-adapted lines, or 37 °C in case of the other bacterial species. Plates were shaken at 300 r.p.m. during incubation for 24 and 18 h, respectively. Cell growth was monitored by measuring the optical density (OD600 value, Biotek Synergy 2 microplate reader was used for this purpose). […] Relative MIC was calculated as follows: MICrelative = MICevolved/MICcontrol.
# A. baumannii ATCC 17978 [2] = type: cell-based, Acinetobacter baumannii; details: Acinetobacter baumannii ATCC 17978; broth dilution, 37 °C, 18 h
# Experimental: as §1, §2
# [3] = tested on: Klebsiella pneumoniae NCTC 13440; type: cell-based; details: broth dilution, 37 °C, 18 h
# Experimental: as §1, §2
# [4] = tested on: Methicillin-resistant Staphylococcus aureus subsp. aureus ATCC 43300; type: cell-based; details: broth dilution, 37 °C, 18 h
# Experimental: as §1, §2
# [5] = tested on: Enterococcus faecium ATCC 700221; type: cell-based; details: broth dilution, 37 °C, 18 h
# Experimental: as §1, §2
# [6] = tested on: Escherichia coli ATCC BAA 2469; type: cell-based; details: broth dilution, 37 °C, 18 h
# Experimental: as §1, §2
# [7] = tested on: Streptococcus pyogenes ATCC 19653; type: cell-based; details: broth dilution, 37 °C, 18 h
# Experimental: as §1, §2
# [8] = tested on: Klebsiella pneumoniae subsp. pneumoniae ATCC 700603; type: cell-based; details: broth dilution, 37 °C, 18 h
# Experimental: as §1, §2
# [9] = tested on: Escherichia coli ATCC 35218; type: cell-based; details: broth dilution, 37 °C, 18 h
# Experimental: as §1, §2
# [10] = tested on: Pseudomonas aeruginosa ATCC 27853; type: cell-based; details: broth dilution, 37 °C, 18 h
# Experimental: as §1, §2
# [11] = tested on: Escherichia coli ATCC BAA 2340; type: cell-based; details: broth dilution, 37 °C, 18 h
# Experimental: as §1, §2
# [12] = tested on: Staphylococcus aureus subsp. aureus ATCC 29213; type: cell-based; details: broth dilution, 37 °C, 18 h
# Experimental: as §1, §2
# [13] = tested on: Enterobacter cloacae subsp. cloacae ATCC 13047; type: cell-based; details: broth dilution, 37 °C, 18 h
# Experimental: as §1, §2
# [14] = tested on: Escherichia coli NCTC 13351; type: cell-based; details: broth dilution, 37 °C, 18 h
# Experimental: as §1, §2
# [15] = tested on: Shigella sonnei HNCMB 25021; type: cell-based; details: broth dilution, 37 °C, 18 h
# Experimental: as §1, §2
# [16] = tested on: Salmonella enteritidis HNCMB 10092; type: cell-based; details: broth dilution, 37 °C, 18 h
# Experimental: as §1, §2
# [17] = tested on: Shigella flexneri HNCMB 20018; type: cell-based; details: broth dilution, 37 °C, 18 h
# Experimental: as §1, §2
# [18] = tested on: Staphylococcus aureus subsp. aureus ATCC 25923; type: cell-based; details: broth dilution, 37 °C, 18 h
# Experimental: as §1, §2
# [19] = tested on: E. coli K-12 BW25113 carrying single mutations; test: MIC change in single-mutation strains (basS L194R, mlaD a342del, waaY M1†); type: cell-based, Escherichia coli
# K. pneumoniae ATCC 10031 [20] = test: Laboratory evolution of resistance, MIC fold change of adapted lines; type: cell-based; details: Klebsiella pneumoniae ATCC 10031; parallel line 1 of 10
# Text: (§3) The tested pathogens initially sensitive to the AMPs and the antibiotics included Escherichia coli (ATCC® 25922™) (abbreviated as E. coli ATCC 25922), Salmonella enterica subsp. enterica serovar Typhimurium LT2 (abbreviated as S. enterica LT2), Klebsiella pneumoniae subsp. pneumoniae (Schroeter) Trevisan (ATCC® 10031™) (abbreviated as K. pneumoniae ATCC 10031) and Acinetobacter baumannii Bouvet and Grimont (ATCC® 17978™) (abbreviated as A. baumannii ATCC 17978).
# (§4) The evolutionary protocol was designed to avoid population extinction and to ensure that populations with the highest level of resistance were propagated further. Starting with a subinhibitory drug concentration (Supplementary Data 8), resulting in ~50% growth inhibition, 10 parallel populations per drug were allowed to grow in Minimal Salts medium for 72 h and 300 r.p.m. E. coli K-12 BW25113 and E. coli mutD5 populations were incubated at 30 °C, while E. coli ATCC 25922, S. enterica LT2, K. pneumonia ATCC 10031, and A. baumannii ATCC 17978 were incubated at 37 °C. […] Prior to each transfer, cell growth was monitored by measuring the optical density at 600 nm (OD600 value, Biotek Synergy 2 microplate reader). Only populations with the highest drug concentration (and reaching OD600 > 0.2) were selected for further evolution. A chess-board layout was used on the plate to monitor potential cross-contamination events. […] E. coli mutD5 was adapted to TPII, also in 10 parallel evolving populations.
# (§5) MICs were determined using a standard serial broth dilution technique. Briefly, 11-step serial dilutions were prepared in 96-well microtiter plates with three replicates per strain and antimicrobial compound. Each experiment was repeated at least twice. […] Cell growth was monitored by measuring the optical density (OD600 value, Biotek Synergy 2 microplate reader was used for this purpose). […] Relative MIC was calculated as follows: MICrelative = MICevolved/MICcontrol.
# A. baumannii ATCC 17978 [21] = test: as above; type: cell-based; details: Acinetobacter baumannii ATCC 17978; parallel line 1 of 10
# Text: as §3, §4, §5
# E. coli ATCC 25922 = test: as above; type: cell-based; details: Escherichia coli ATCC 25922; parallel line 1 of 10
# Text: as §3, §4, §5
# [22] = tested on: E. coli ATCC 25922, S. enterica LT2, K. pneumoniae ATCC 10031, A. baumannii ATCC 17978; test: Laboratory evolution in pathogenic bacteria, statements for all four pathogens together; type: cell-based; details: all four pathogenic species
# Text: as §3, §4, §5
# [23] = tested on: E. coli K-12 BW25113 bearing the metagenomic plasmid library; test: Functional metagenomic screen of a soil library, gradient plate selection; type: cell-based, Escherichia coli
compound,measurement,setting,value
"SWLSKTAKKLENSAKKRISEGIAIAIQGGPR [CP1, Cecropin P1]",MIC,K. pneumoniae ATCC 10031 [1],1.2 to 2.4 µM
same,MIC,A. baumannii ATCC 17978 [2],0.6 to 1.2 µM
same,MIC,[3],1.2 µM
same,MIC,[4],> 9.6 µM
same,MIC,[5],> 9.6 µM
same,MIC,[6],1.2 µM
same,MIC,[7],> 9.6 µM
same,MIC,[8],2.4 µM
same,MIC,[9],1.2 µM
same,MIC,[10],2.4 µM
same,MIC,[11],1.2 µM
same,MIC,[12],> 9.6 µM
same,MIC,[13],> 9.6 µM
same,MIC,[14],0.6 to 1.2 µM
same,MIC,[15],0.6 to 1.2 µM
same,MIC,[16],1.2 µM
same,MIC,[17],1.2 µM
same,MIC,[18],> 9.6 µM
"CC[C@H](C)[C@@H]1NC(=O)CNC(=O)[C@H](CCCNC(=N)N)NC(=O)[C@H](Cc2ccc(O)cc2)NC(=O)[C@@H]2CSSC[C@H](NC1=O)C(=O)N[C@@H](Cc1ccc(O)cc1)C(=O)N[C@@H](CCCNC(=N)N)C(=O)N[C@@H](CCCCN)C(=O)N[C@H](C(=O)N[C@@H](CCCNC(=N)N)C(N)=O)CSSC[C@H](NC(=O)[C@H](Cc1c[nH]c3ccccc13)NC(=O)[C@@H](N)CCCNC(=N)N)C(=O)N[C@@H](Cc1ccccc1)C(=O)N[C@@H](CCCNC(=N)N)C(=O)N[C@@H](C(C)C)C(=O)N2 [TPII, tachyplesin II] (HELM PEPTIDE1{R.W.C.F.R.V.C.Y.R.G.I.C.Y.R.K.C.R.[am]}$PEPTIDE1,PEPTIDE1,3:R3-16:R3|PEPTIDE1,PEPTIDE1,7:R3-12:R3$$$V2.0; N-terminus and C-terminus assumed; bridges inferred)","resistance conferred by single mutations basS L194R, mlaD a342del, waaY M1† (in words)",[19]; mutations inserted individually into E. coli K-12 BW25113,no resistance
same,Relative MIC compared to the wild-type,[19]; strain with reinserted mutation basS L194R (CTG→CGG),1.0
same,Relative MIC compared to the wild-type,[19]; strain with reinserted mutation mlaD a342del,1.0
same,Relative MIC compared to the wild-type,[19]; strain with reinserted mutation waaY M1† (ATG→CTG),1.0
same,MIC fold change following 20 transfers,K. pneumoniae ATCC 10031 [20],5.6 fold
same,MIC fold change following 20 transfers,A. baumannii ATCC 17978 [21],4.3 fold
same,MIC fold change following 20 transfers,E. coli ATCC 25922,4.8 fold
same,resistance after laboratory evolution in pathogens (in words),[22],very low levels
same,resistant clones / resistance-conferring DNA segments from the soil metagenomic library (in words),[23],failed to find DNA segments that would provide resistance
same,Number of resistant contig,"[23]; soil metagenomic library, 1.5–5 kb fragments, gradient plate, 30 °C, 24 h",0
